Counter-ions that a name gives are not always drawn.

In the assay the target is T1, human P2Y12 receptor (Homo sapiens, UniProt Q9H244).
T1 construct: expressed in transfected cells; host or cells: Chinese Hamster Ovary (CHO) cells
T1 sequence (Q9H244 whole entry): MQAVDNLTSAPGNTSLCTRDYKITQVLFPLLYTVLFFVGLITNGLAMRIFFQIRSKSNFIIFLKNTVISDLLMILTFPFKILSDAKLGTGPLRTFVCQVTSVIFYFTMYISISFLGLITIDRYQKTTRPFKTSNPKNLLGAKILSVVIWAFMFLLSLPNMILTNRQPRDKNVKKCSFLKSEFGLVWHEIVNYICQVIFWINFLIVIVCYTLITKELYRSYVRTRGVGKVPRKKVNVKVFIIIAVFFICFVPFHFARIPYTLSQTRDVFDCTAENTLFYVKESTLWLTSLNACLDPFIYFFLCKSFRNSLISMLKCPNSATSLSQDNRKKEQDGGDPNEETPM
Briefly: P2Y12 receptor binding assay. The following applies: CHO cells with recombinant expression of the human P2Y12 receptor; tritium-labeled 2-methyl-S-ADP; incubation at room temperature for 2 hours. How it is done:
P2Y12 Receptor Binding Assay
Chinese Hamster Ovary (CHO) cells with recombinant expression of the human P2Y12 receptor were cultured in 24 well cell-culture plates. Cells were washed three times with binding buffer (50 mM Tris pH 7.4, 100 mM NaCl, 1 mM EDTA, 0.5% BSA). The cells were then incubated with 0.5 ml per well binding buffer containing tritium-labeled 2-methyl-thio-adenosine 5′-diphosphate (2-methyl-S-ADP) (between 100'000 and 300'000 dpm per well) and various concentrations of test compounds. After incubation at room temperature for 2 hours, cells were washed three times with binding buffer. Then, cells were solubilized by addition of 0.5 ml solubilization buffer (SDS, NaOH, EDTA). The content of each well was then transferred into beta-counter vials and 2.0 ml of Ultima Gold Scintillation liquid was added.
On to `CCOC(=O)N1CCN(C(=O)[C@H](CCC(=O)O)NC(=O)c2cc(N3CCC[C@@H]3COC)nc(-c3ccccc3)n2)CC1` [Example 324, 4-((S)-4-carboxy-2-{[6-((R)-2-methoxymethyl-pyrrolidin-1-yl)-2-phenyl-pyrimidine-4-carbonyl]-amino}-butyryl)-piperazine-1-carboxylic acid ethyl ester formate salt], for which the IC50 was 61 nM.
Consider `CCOC(=O)N1CCN(C(=O)[C@H](CCC(=O)O)NC(=O)c2cc(-c3cn[nH]c3)nc(-c3ccccc3)n2)CC1` [Example 396, 4-((S)-4-carboxy-2-{[2-phenyl-6-(1H-pyrazol-4-yl)-pyrimidine-4-carbonyl]-amino}-butyryl)-piperazine-1-carboxylic acid ethyl ester], for which the IC50 came to 73 nM.
Under `CCCCc1cc(C(=O)N[C@@H](CCC(=O)O)C(=O)N2CCN(C(=O)OCC)CC2)nc(-c2ccccc2)n1` [Example 88, 4-{(S)-2-[(6-butyl-2-phenyl-pyrimidine-4-carbonyl)-amino]-4-carboxy-butyryl}-piperazine-1-carboxylic acid ethyl ester] stands 98 nM.
Turning to `CCOC(=O)N1CCN(C(=O)[C@H](Cc2ccc(C(=O)O)cc2)NC(=O)c2cc(NC(C)C)nc(-c3ccccc3)n2)CC1` [Example 115, 4-{(S)-3-(4-carboxy-phenyl)-2-[(6-isopropylamino-2-phenyl-pyrimidine-4-carbonyl)-amino]-propionyl}-piperazine-1-carboxylic acid ethyl ester], the concentration for half-maximal inhibition (IC50) came out at 390 nM.

As a reminder, the IC50 is the concentration needed to halve the response being measured.
